In ChEMBL document CHEMBL1212829, “Efficient synthesis of Hsp90 inhibitor dimers as potential antitumor agents” (Bioorg Med Chem, 2010):

Key:
[1] = target: Heat shock protein HSP 90-alpha (Homo sapiens, UniProt P07900); assay: Displacement of biotin-labeled geldanamycin from N-terminal His-tagged human recombinant HSP90alpha expressed in Escherichia coli
Heat shock protein HSP90 = Heat shock protein HSP90 (Homo sapiens, UniProt P07900+P08238); assay: Inhibition of Hsp90 in human SKBR3 cells assessed as Her2 degradation after 24 hrs by Western blotting; type: cell-based; details: sk-br-3
SK-BR-3 = assay: Cytotoxicity against human SKBR3 cells after 72 hrs by crystal violet assay; type: functional, cell-based; details: SK-BR-3, 72 h

| SMILES | IC50 [1] [µM] | IC50 (Heat shock protein HSP90) [µM] | IC50 (SK-BR-3) [µM] |
| --- | --- | --- | --- |
| C#CCCCn1c(Sc2cc3c(cc2Br)OCO3)nc2c(N)ncnc21 | 0.3 | 0.46 | 0.33 |
| C#CCCCCn1c(Sc2cc3c(cc2Br)OCO3)nc2c(N)ncnc21 | 1.4 | 2.6 | 1.4 |
| Nc1ncnc2c1nc(Sc1cc3c(cc1Br)OCO3)n2CCCc1cn(CCOCCOCCOCCOCCOCCOCCn2cc(CCCn3c(Sc4cc5c(cc4Br)OCO5)nc4c(N)ncnc43)nn2)nn1 | 0.79 | 7.1 | 5.6 |
| Nc1ncnc2c1nc(Sc1cc3c(cc1Br)OCO3)n2CCCc1cn(CCOCCOCCOCCOCCOCCOCCOCCn2cc(CCCn3c(Sc4cc5c(cc4Br)OCO5)nc4c(N)ncnc43)nn2)nn1 | 1.1 | 9.2 | 4.8 |
| Nc1ncnc2c1nc(Sc1cc3c(cc1Br)OCO3)n2CCCc1cn(CCOCCOCCOCCOCCOCCn2cc(CCCn3c(Sc4cc5c(cc4Br)OCO5)nc4c(N)ncnc43)nn2)nn1 | 0.65 | 6.3 | 3.8 |
| Nc1ncnc2c1nc(Sc1cc3c(cc1Br)OCO3)n2CCCCc1cn(CCOCCOCCOCCOCCOCCn2cc(CCCCn3c(Sc4cc5c(cc4Br)OCO5)nc4c(N)ncnc43)nn2)nn1 | 5.1 | 5.2 | 3 |
| Nc1ncnc2c1nc(Sc1cc3c(cc1Br)OCO3)n2CCCc1cn(CCCO)nn1 | 0.49 | 3.9 | 1.8 |
| Nc1ncnc2c1nc(Sc1cc3c(cc1Br)OCO3)n2CCCCc1cn(CCCO)nn1 | 0.51 | 2.9 | 1.4 |
| Nc1ncnc2c1nc(Sc1cc3c(cc1Br)OCO3)n2CCCCc1cn(CCOCCOCCOCCOCCOCCOCCOCCn2cc(CCCCn3c(Sc4cc5c(cc4Br)OCO5)nc4c(N)ncnc43)nn2)nn1 | 3.1 | 4.2 | 4.8 |
| Nc1ncnc2c1nc(Sc1cc3c(cc1Br)OCO3)n2CCCCc1cn(CCOCCOCCOCCOCCOCCOCCn2cc(CCCCn3c(Sc4cc5c(cc4Br)OCO5)nc4c(N)ncnc43)nn2)nn1 | 3.4 | 4.7 | 5 |
